± gives the standard deviation of the averaged measurements.
Key:
Details in all cases: 72 h
[1] = system: KU-812
How it was run: (§1)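 Fifteen myeloid leukaemia lines were incubated for 72 h at 37 °C with 5% CO2 across five tenfold doses from 1 to 10,000 nM, in duplicate. ATP luminescence was normalised to vehicle and to a positive control at 10 µM and fitted with a four-parameter log-logistic model. The IC50 came from these dose–response fits.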

[2] = system: Mono-Mac-6
How it was run: as §1

[3] = system: BV-173
How it was run: as §1

[4] = system: HL-60
How it was run: as §1

[5] = system: LAMA-84
How it was run: as §1

[6] = system: HEL
How it was run: as §1

[7] = system: KG-1
How it was run: as §1

[8] = system: MV4-11
How it was run: as §1

[9] = system: SHI-1
How it was run: as §1

[10] = system: MOLM-13
How it was run: as §1

[11] = system: NOMO-1
How it was run: as §1

[12] = system: ML-2
How it was run: as §1

[13] = system: KCL-22
How it was run: as §1

[14] = system: THP-1
How it was run: as §1

[15] = system: K-562
How it was run: as §1

[16] = system: HL-60; assay: area under dose-response curve (viability, 1 nM-10 uM) (fraction (0-1)); higher = more sensitive
How it was run: (§2)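 For each screen, HL-60 cells in RPMI 1640 with 10% FBS carried either DMSO or 100 nM of one of three metabolic inhibitors while the full library was applied at five tenfold concentrations, 1–10,000 nM, in duplicate. Plates were 384-well and were kept 72 h at 37 °C, 5% CO2. Viability, measured by CellTiter-Glo, was normalised to wells with DMSO and with 10 μM proteasome inhibitor. Where area under the curve appears, it was fitted by four-parameter log-logistic models in drc and PharmacoGx.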

[17] = system: KU-812; assay: cell viability (% survival relative to DMSO control, bortezomib = 0%); higher = less cytotoxic
How it was run: (§3)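 Reported values are percent survival from duplicate wells, averaged. Fifteen myeloid leukaemia cell lines were treated in 384-well plates with compounds at 1, 10, 100, 1000 or 10000 nM for 72 h at 37 °C in 5% CO2. Signals from CellTiter-Glo luminescence were scaled with vehicle as 100% and a 10 µM positive control as 0%.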

[18] = system: Mono-Mac-6; assay: as above
How it was run: as §3

[19] = system: BV-173; assay: as above
How it was run: as §3

[20] = system: HL-60; assay: as above
How it was run: as §3

[21] = system: LAMA-84; assay: as above
How it was run: as §3

[22] = system: HEL; assay: as above
How it was run: as §3

[23] = system: SHI-1; assay: as above
How it was run: as §3

[24] = system: NOMO-1; assay: as above
How it was run: as §3

[25] = system: ML-2; assay: as above
How it was run: as §3

[26] = system: KCL-22; assay: as above
How it was run: as §3

[27] = system: K-562; assay: as above
How it was run: as §3

[28] = system: HL-60; assay: cell viability (% survival relative to DMSO control); higher = less cytotoxic
How it was run: as §2

CCCCN1C[C@H](O)[C@@H](O)[C@H](O)[C@H]1CO [Miglustat]
Details	IC50 (cell viability) [µM]
[1]	> 10
[2]	> 10
[3]	> 10
[4]	> 10
[5]	> 10
[6]	> 10
[7]	> 10
[8]	> 10
[9]	> 10
[10]	> 10
[11]	> 10
[12]	> 10
[13]	> 10
[14]	> 10
[15]	> 10

Details	area under dose-response curve, co-treatment: AZD3965 100 nM	area under dose-response curve, co-treatment: DMSO vehicle	area under dose-response curve, co-treatment: GSK2194069 100 nM	area under dose-response curve, co-treatment: pictilisib 100 nM	cell viability, 1 nM [%]	cell viability, 10 nM [%]	cell viability, 100 nM [%]	cell viability, 1000 nM [%]	cell viability, 10000 nM [%]
[16]	< 0.0301	< 0.0301	< 0.0301	< 0.0301	–	–	–	–	–
[17]	–	–	–	–	87.9	94.6	89.5	105	86.7
[18]	–	–	–	–	82.9	90.4	92.4	95.4	92.7
[19]	–	–	–	–	90.7	104	95.6	97.8	86.8
[20]	–	–	–	–	87.6	81.8	98.7	101	91.8
[21]	–	–	–	–	94.3	97.8	96.4	103	92.8
[22]	–	–	–	–	92.6	103	95.2	101	93.6
[23]	–	–	–	–	106	93	102	98.6	88.7
[24]	–	–	–	–	94.3	98.4	94	103	90
[25]	–	–	–	–	95.4	112	86.5	101	94.9
[26]	–	–	–	–	90.9	82.1	97.8	98.1	82.9
[27]	–	–	–	–	94.4	95.8	94.4	99.4	89.9

cell viability [%], [28]
Details	0.001 µM	0.01 µM	0.1 µM	1 µM	10 µM
co-treatment: AZD3965 100 nM	106 ± 3.3	98.2 ± 7.3	106 ± 6.2	96.6 ± 2.6	100 ± 4.3
co-treatment: DMSO vehicle	101 ± 5.3	101 ± 7.8	103 ± 5.5	98.7 ± 2	98 ± 1.2
co-treatment: GSK2194069 100 nM	91.5 ± 4.9	94.4 ± 10	104.5 ± 0.19	99.5 ± 5.5	101 ± 8.5
co-treatment: pictilisib 100 nM	104 ± 2.5	109 ± 10	112 ± 28	107 ± 3.2	101 ± 4.7

C=C(C=NNC(=N)N)NNC(=N)N [Mitoguazone]
Details	IC50 (cell viability) [µM]
[1]	4.55
[2]	1.24
[3]	1.44
[4]	7.01
[5]	2.29
[6]	9.12
[7]	3.31
[8]	1.13
[9]	1.1
[10]	0.944
[11]	1.59
[12]	0.916
[13]	4.4
[14]	3.08
[15]	1.32

Details	area under dose-response curve, co-treatment: AZD3965 100 nM	area under dose-response curve, co-treatment: DMSO vehicle	area under dose-response curve, co-treatment: GSK2194069 100 nM	area under dose-response curve, co-treatment: pictilisib 100 nM	cell viability, 1 nM [%]	cell viability, 10 nM [%]	cell viability, 100 nM [%]	cell viability, 1000 nM [%]	cell viability, 10000 nM [%]
[16]	0.0689	< 0.0301	0.0353	0.0324	–	–	–	–	–
[17]	–	–	–	–	105	107	96.5	83	30.6
[18]	–	–	–	–	92.4	92.3	85.5	55.3	18.1
[19]	–	–	–	–	105	111	107	71	13.3
[20]	–	–	–	–	85.2	73.2	148	97.7	32.9
[21]	–	–	–	–	99.9	104	100	86.6	24.4
[22]	–	–	–	–	103	108	97.5	93.2	50.4
[23]	–	–	–	–	93.8	89.2	95.4	59.8	20.6
[24]	–	–	–	–	94.9	102	90.9	61.7	16.2
[25]	–	–	–	–	97.7	104	100	56.6	24.7
[26]	–	–	–	–	94.4	100	103	86.9	42
[27]	–	–	–	–	96.1	105	114	67	29.3

cell viability [%], [28]
Details	0.001 µM	0.01 µM	0.1 µM	1 µM	10 µM
co-treatment: AZD3965 100 nM	98 ± 2.1	102 ± 2.5	102 ± 1.6	93.1 ± 4.7	48.6 ± 1.8
co-treatment: DMSO vehicle	99.2 ± 4.5	100.1 ± 0.87	97.8 ± 2.5	101 ± 2.3	69.6 ± 3
co-treatment: GSK2194069 100 nM	101 ± 3.5	112 ± 10	102.2 ± 0.58	98.3 ± 1	76.9 ± 2.1
co-treatment: pictilisib 100 nM	108 ± 1.3	120 ± 2.9	104 ± 6.1	112 ± 4.9	56.7 ± 3.5

CCCCC/C=C\C/C=C\C/C=C\C/C=C\CCCCN1C(=O)C=CC1=O [N-Arachidonylmaleimide]
Details	IC50 (cell viability) [µM]
[1]	> 10
[2]	> 10
[3]	> 10
[4]	> 10
[5]	> 10
[6]	> 10
[7]	> 10
[8]	> 10
[9]	> 10
[10]	> 10
[11]	> 10
[12]	> 10
[13]	> 10
[14]	> 10
[15]	> 10

Details	area under dose-response curve, co-treatment: AZD3965 100 nM	area under dose-response curve, co-treatment: DMSO vehicle	area under dose-response curve, co-treatment: GSK2194069 100 nM	area under dose-response curve, co-treatment: pictilisib 100 nM	cell viability, 1 nM [%]	cell viability, 10 nM [%]	cell viability, 100 nM [%]	cell viability, 1000 nM [%]	cell viability, 10000 nM [%]
[16]	< 0.0301	< 0.0301	< 0.0301	< 0.0301	–	–	–	–	–
[17]	–	–	–	–	103	97.9	94.6	97.2	91.4
[18]	–	–	–	–	94	101	91.1	107	101
[19]	–	–	–	–	99.9	97.7	97.8	94.8	96.8
[20]	–	–	–	–	111	94.7	81.8	125	88.1
[21]	–	–	–	–	96.8	99.9	98.4	97.7	96
[22]	–	–	–	–	98.7	102	97.9	103	89.7
[23]	–	–	–	–	100	102	96.7	104	88.9
[24]	–	–	–	–	95.5	98.1	103	96.5	99.4
[25]	–	–	–	–	95.9	97.1	96.6	94.3	91
[26]	–	–	–	–	90.9	95.7	100	105	95
[27]	–	–	–	–	103	91.5	93.4	110	90.6

cell viability [%], [28]
Details	0.001 µM	0.01 µM	0.1 µM	1 µM	10 µM
co-treatment: AZD3965 100 nM	98.7 ± 5.8	89.7 ± 24	98.58 ± 0.45	99.6 ± 8.7	101 ± 1.9
co-treatment: DMSO vehicle	92.6 ± 2.7	95.4 ± 5.9	101.04 ± 0.026	101 ± 7.1	100.9 ± 0.64
co-treatment: GSK2194069 100 nM	96.8 ± 12	84.8 ± 18	98.4 ± 4.1	100 ± 3.1	100.5 ± 0.71
co-treatment: pictilisib 100 nM	96.4 ± 4.4	84.8 ± 1.7	97 ± 4.4	97.89 ± 0.76	103 ± 2.2

Source: the supplement of paper PMC8671470
